According to the supplement of paper PMC4121296:

Tests used:
Conditions in all cases: exposure: 5-72 hpf
[1] = test system: Danio rerio embryo (fli1:egfp); assay: heart rate at 72 hpf (beats per minute); higher = faster heart rate
Procedure: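 fli1:egfp zebrafish embryos exposed 5-72 hpf to chemical (0.05-50 µM, 0.1% DMSO) in 384-well plates; heart rate at 72 hpf quantified from stream acquisitions by semi-automated MetaXpress journal (peak counting); only embryos in concentrations passing survival/body-length criteria analyzed.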

[2] = test system: Danio rerio embryo (fli1:egfp); assay: body length at 72 hpf (µm); higher = longer body (less growth inhibition)
Procedure: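 Transgenic fli1:egfp zebrafish embryos (one per well, 384-well plate) exposed statically from 5 to 72 hpf at 28 °C to chemical (0.05-50 µM, 0.1% DMSO); at 72 hpf anesthetized and imaged on ImageXpress; body length of live, hatched, correctly oriented embryos measured by automated MetaXpress journal. Dead/unhatched/misoriented embryos have no value.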

[3] = test system: Danio rerio embryo (fli1:egfp); assay: pericardial area at 72 hpf (image area units (not stated)); higher = larger pericardial area (edema)
Procedure: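 fli1:egfp zebrafish embryos exposed 5-72 hpf to chemical (0.05-50 µM, 0.1% DMSO); pericardial area at 72 hpf measured by semi-automated MetaXpress journal (increase indicates edema).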

[4] = test system: Danio rerio embryo (fli1:egfp); assay: arterial (dorsal aorta) circulation score at 72 hpf (normalized DA-Max (arbitrary units)); higher = more circulation
Procedure: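 fli1:egfp zebrafish embryos exposed 5-72 hpf to chemical (0.05-50 µM, 0.1% DMSO); arterial circulation at 72 hpf quantified from stream acquisitions of the dorsal aorta by FFT-based analysis (DA-Max, normalized dorsal aorta signal); only concentrations passing survival/body-length criteria analyzed.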

[5] = test system: Danio rerio embryo (fli1:egfp); assay: intersegmental vessel area normalized to body length at 72 hpf (ISV area / body length (normalized units)); higher = more vessel area
Procedure: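 fli1:egfp zebrafish embryos exposed 5-72 hpf to chemical (0.05-50 µM, 0.1% DMSO); intersegmental vessel (ISV) eGFP area quantified by MetaXpress journal at 72 hpf and normalized to body length.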

CCCCSP(=O)(SCCCC)SCCCC [Tribufos]
Conditions	arterial, [4]	body length at 72 hpf, [2]	heart rate at 72 hpf, [1]	intersegmental vessel area normalized, [5]	pericardial area at 72 hpf, [3]
0.05 µM	11.1	2900	166	79.6	13400
0.098 µM	14.1	2950	161	84.8	13600
0.195 µM	14.9	2990	182	92.3	14700
0.39 µM	15.4	2940	169	83.8	13700
0.78 µM	14.8	2940	167	86	14600
1.56 µM	16.1	2910	164	87.5	14200
3.125 µM	14.5	2980	172	81.8	13300
6.25 µM	15	2970	176	94.4	15200
12.5 µM	13.9	2870	166	81.3	13400

CCc1nn(C)c(C(=O)NCc2ccc(C(C)(C)C)cc2)c1Cl [Tebufenpyrad]
Conditions	arterial, [4]	body length at 72 hpf, [2]	heart rate at 72 hpf, [1]	intersegmental vessel area normalized, [5]	pericardial area at 72 hpf, [3]
0.05 µM	9.08	2980	155	75.7	13400
0.098 µM	10.5	2960	166	75.9	13600
0.195 µM	10.6	2960	160	78.8	13000
0.39 µM	11.6	2990	166	76.5	14800
0.78 µM	14.2	2950	174	77	16300

CC(C)Oc1cc(-n2nc(C(C)(C)C)oc2=O)c(Cl)cc1Cl [Oxadiazon]
Conditions	arterial, [4]	body length at 72 hpf, [2]	heart rate at 72 hpf, [1]	intersegmental vessel area normalized, [5]	pericardial area at 72 hpf, [3]
0.05 µM	14.6	3090	179	85.1	14800
0.098 µM	14	3060	184	88.1	13700
0.195 µM	13.8	3090	190	90.3	15400
0.39 µM	14.5	3060	186	82.3	15400
0.78 µM	13.1	3040	182	82.4	16500
1.56 µM	15.4	2950	183	83.4	14900
3.125 µM	13.2	3060	188	85.6	15800
6.25 µM	14.1	3120	190	90.4	16000
12.5 µM	11.5	3000	181	94.5	17300
25 µM	9.56	2960	155	90.2	16800

CCOC(=O)COc1cc(-n2ncc(C(F)(F)F)c(C)c2=O)c(F)cc1Cl [Flufenpyr-ethyl]
Conditions	arterial, [4]	body length at 72 hpf, [2]	heart rate at 72 hpf, [1]	intersegmental vessel area normalized, [5]	pericardial area at 72 hpf, [3]
0.05 µM	8.79	2990	169	84.4	12800
0.098 µM	9.74	3000	178	70.8	13000
0.195 µM	9.58	3040	181	75.2	12300
0.39 µM	8.94	3080	180	77.1	13600
0.78 µM	9.32	3020	186	74.8	13300
1.56 µM	8.81	3020	182	75.8	13600
3.125 µM	6.7	2950	181	82.9	15300
6.25 µM	5.21	2810	166	83.5	25900

CCN(Cc1c(F)cccc1Cl)c1c([N+](=O)[O-])cc(C(F)(F)F)cc1[N+](=O)[O-] [Flumetralin]
Conditions	arterial, [4]	body length at 72 hpf, [2]	heart rate at 72 hpf, [1]	intersegmental vessel area normalized, [5]
0.05 µM	16.7	3020	183	67.3
0.098 µM	16.1	3080	174	74.9
0.195 µM	16.8	3050	177	79.1
0.39 µM	15	3010	176	72.5
0.78 µM	15.4	2980	181	76.2
1.56 µM	15.1	2850	182	84
3.125 µM	–	2770	–	–
6.25 µM	–	2670	–	–
12.5 µM	–	2670	–	–
25 µM	–	2670	–	–
50 µM	–	2620	–	–

CN1CSC(=S)N(C)C1 [Dazomet]
0.05 µM
Conditions	arterial	body length at 72 hpf	heart rate at 72 hpf	intersegmental vessel area normalized	pericardial area at 72 hpf
[1]	–	–	168	–	–
[2]	–	2860	–	–	–
[3]	–	–	–	–	15600
[4]	14.4	–	–	–	–
[5]	–	–	–	72.7	–
